Data: patent US20250090540A1, “PI3K-ALPHA INHIBITORS AND METHODS OF USE THEREOF” (Relay Therapeutics, Inc., priority 2021, published 2025)

Target: H1047R PIK3CA enzyme (Homo sapiens, UniProt P42336, H1047R)
Assay: ADP-Glo Biochemical PIK3CA Kinase Assay
Details: not given

Chain of H1047R PIK3CA enzyme (P42336 whole entry H1047R): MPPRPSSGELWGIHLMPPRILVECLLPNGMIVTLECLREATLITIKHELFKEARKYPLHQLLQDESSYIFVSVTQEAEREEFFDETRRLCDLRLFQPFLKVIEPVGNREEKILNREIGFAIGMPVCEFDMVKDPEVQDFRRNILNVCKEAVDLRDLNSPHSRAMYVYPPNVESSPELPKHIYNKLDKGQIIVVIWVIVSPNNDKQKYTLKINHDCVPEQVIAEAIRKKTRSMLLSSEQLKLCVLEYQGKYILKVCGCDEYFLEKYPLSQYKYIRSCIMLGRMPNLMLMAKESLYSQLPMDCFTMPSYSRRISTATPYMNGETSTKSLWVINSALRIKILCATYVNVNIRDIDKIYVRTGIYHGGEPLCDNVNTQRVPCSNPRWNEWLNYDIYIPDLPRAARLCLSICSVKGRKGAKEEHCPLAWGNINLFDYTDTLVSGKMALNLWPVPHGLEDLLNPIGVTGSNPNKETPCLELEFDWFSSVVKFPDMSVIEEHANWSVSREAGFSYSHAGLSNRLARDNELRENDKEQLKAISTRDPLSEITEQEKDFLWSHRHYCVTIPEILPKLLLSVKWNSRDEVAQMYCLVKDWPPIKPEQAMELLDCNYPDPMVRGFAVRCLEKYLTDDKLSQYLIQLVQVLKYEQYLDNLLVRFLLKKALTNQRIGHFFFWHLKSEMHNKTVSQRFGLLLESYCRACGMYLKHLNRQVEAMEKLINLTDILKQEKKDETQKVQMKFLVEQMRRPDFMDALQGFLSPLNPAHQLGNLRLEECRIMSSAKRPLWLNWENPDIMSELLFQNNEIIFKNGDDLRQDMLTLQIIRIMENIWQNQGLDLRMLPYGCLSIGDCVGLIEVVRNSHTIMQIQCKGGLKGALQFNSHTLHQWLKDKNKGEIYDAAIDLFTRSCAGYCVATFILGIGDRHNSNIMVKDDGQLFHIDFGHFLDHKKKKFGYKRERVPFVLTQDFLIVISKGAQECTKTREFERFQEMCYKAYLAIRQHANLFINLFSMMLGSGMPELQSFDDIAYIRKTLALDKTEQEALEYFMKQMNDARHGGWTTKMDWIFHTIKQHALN
Chain of H1047R PIK3CA enzyme (P27986 whole entry partner): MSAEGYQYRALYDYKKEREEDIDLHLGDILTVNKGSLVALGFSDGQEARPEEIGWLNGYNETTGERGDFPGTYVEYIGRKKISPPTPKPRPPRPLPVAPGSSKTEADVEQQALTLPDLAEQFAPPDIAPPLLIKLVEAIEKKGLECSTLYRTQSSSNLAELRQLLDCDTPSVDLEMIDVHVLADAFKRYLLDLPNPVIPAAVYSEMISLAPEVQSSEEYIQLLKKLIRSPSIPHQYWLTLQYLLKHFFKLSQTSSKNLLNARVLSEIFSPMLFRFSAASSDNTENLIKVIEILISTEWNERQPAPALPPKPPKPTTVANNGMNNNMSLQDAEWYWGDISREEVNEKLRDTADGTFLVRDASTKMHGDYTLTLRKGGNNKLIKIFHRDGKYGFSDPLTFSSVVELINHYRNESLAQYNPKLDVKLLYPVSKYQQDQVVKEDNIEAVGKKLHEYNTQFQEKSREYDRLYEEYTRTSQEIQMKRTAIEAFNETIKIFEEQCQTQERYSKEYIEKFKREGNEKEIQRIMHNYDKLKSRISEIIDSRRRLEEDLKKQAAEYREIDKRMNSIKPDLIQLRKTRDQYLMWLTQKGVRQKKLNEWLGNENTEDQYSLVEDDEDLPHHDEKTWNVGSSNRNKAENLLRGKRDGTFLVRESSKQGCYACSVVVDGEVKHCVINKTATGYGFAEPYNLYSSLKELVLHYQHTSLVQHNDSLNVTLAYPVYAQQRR

| SMILES | IC50 [µM] |
| --- | --- |
| CNC(=O)c1cnc(Nc2ccccc2C)c(NC(=O)c2c(C)sc3ccccc23)c1 [I-328] | 10 to 100 |
| CNC(=O)c1cnc(Nc2ccccc2C)c(NC(=O)C2(c3ccccn3)CC2)c1 [I-333] | 10 to 100 |
| CNC(=O)c1cnc(Nc2ccccc2C)c(NC(=O)C2(c3cccnc3)CC2)c1 [I-334] | 10 to 100 |
| O=C(Nc1cc(C(=O)NC2CC(F)(F)C2)cnc1N1C(=O)NCc2ccccc21)c1cc(F)cc(C(F)(F)F)c1 [I-338] | 1 to 10 |
| CNC(=O)c1cnc(Nc2ccccc2C)c(NC(=O)c2csc3c2CCCC3)c1 [I-340] | 1 to 10 |
| CNC(=O)c1cnc(Nc2ccccc2C)c(NC(=O)c2csc3c2CCC3)c1 [I-341] | 1 to 10 |
| CNC(=O)c1cnc(Nc2ccccc2C)c(NC(=O)C2(c3ccccc3)CC2(F)F)c1 (centres unmarked) [I-342] | 10 to 100 |
| Cc1ccccc1Nc1ccncc1NC(=O)c1csc2ccccc12 [I-344] | 1 to 10 |
| CNC(=O)c1cnc(Nc2cccc(OC)n2)c(NC(=O)c2csc3ccccc23)c1 [I-346] | 1 to 10 |
| Cc1ccccc1Nc1ncc(C(O)CO)cc1NC(=O)c1cc(F)cc(C(F)(F)F)c1 (centres unmarked) [I-351] | 1 to 10 |
| CNC(=O)c1cnc(Nc2ccccc2C)c(NC(=O)c2csc3cc(C)ccc23)c1 [I-354] | 1 to 10 |
| CNC(=O)c1cnc(Nc2ccccc2C)c(NC(=O)c2csc3cc(OC)ccc23)c1 [I-355] | 10 to 100 |
| Cc1ccccc1Nc1ncc(C(=O)NC2CS(=O)(=O)C2)cc1NC(=O)c1cncc2ccccc12 [I-356] | 10 to 100 |
| Cc1ccccc1Nc1ncc(C(=O)NC2CS(=O)(=O)C2)cc1NC(=O)c1cc2ccccc2o1 [I-357] | 10 to 100 |
| CNC(=O)c1cnc(NCCOC)c(NC(=O)c2cc(F)cc(C(F)(F)F)c2)c1 [I-358] | 10 to 100 |
| CNC(=O)c1cnc(NC2CCCCC2)c(NC(=O)c2cc(F)cc(C(F)(F)F)c2)c1 [I-359] | 10 to 100 |
| CNC(=O)c1cnc(NC2CCCC2)c(NC(=O)c2cc(F)cc(C(F)(F)F)c2)c1 [I-360] | 10 to 100 |
| Cc1ccccc1Nc1cc(=O)n(CC(=O)NCC2CC(F)(F)C2)cc1NC(=O)c1csc2ccccc12 [I-363] | 1 to 10 |
| CNC(=O)c1cnc(Nc2ccccc2C)c(NC(=O)c2cc(F)cc(OC(F)F)c2)c1 [I-364] | 1 to 10 |
| CNC(=O)c1cnc(Nc2ccccc2C)c(NC(=O)c2cnccc2C(F)(F)F)c1 [I-365] | 10 to 100 |
| CNC(=O)c1cnc(Nc2ccccc2C)c(NC(=O)c2ccnc(C(F)(F)F)c2)c1 [I-366] | 10 to 100 |
| CNC(=O)c1cnc(Nc2ccccc2C)c(NC(=O)c2nc3ccccc3n(C)c2=O)c1 [I-368] | 10 to 100 |
| CNC(=O)c1cnc(Nc2ccccc2C)c(NC(=O)c2cc(C)n(C(F)F)n2)c1 [I-369] | 10 to 100 |
| CNC(=O)c1cnc(Nc2ccccc2C)c(NC(=O)c2c[nH]c3cccc(OC)c23)c1 [I-370] | 10 to 100 |

| SMILES | IC50 [µM] |
| --- | --- |
| CNC(=O)c1cnc(Nc2ccccc2C)c(NC(=O)c2cccnc2C(F)(F)F)c1 [I-371] | 10 to 100 |
| CNC(=O)c1cnc(Nc2ccccc2C)c(NC(=O)c2nccnc2C(F)(F)F)c1 [I-372] | 10 to 100 |
| CNC(=O)c1cnc(Nc2ccccc2C)c(NC(=O)Cc2cc(C)cc(F)c2)c1 [I-373] | 10 to 100 |
| CNC(=O)c1cnc(Nc2ccccc2C)c(NC(=O)c2cn3ccccc3n2)c1 [I-374] | 10 to 100 |
| CCn1nc(C(=O)Nc2cc(C(=O)NC)cnc2Nc2ccccc2C)c2ccccc21 [I-375] | 10 to 100 |
| CNC(=O)c1cnc(Nc2ccccc2C)c(NC(=O)c2cccc(C(F)(F)F)n2)c1 [I-376] | 10 to 100 |
| CNC(=O)c1cnc(Nc2ccccc2C)c(NC(=O)c2cn3c(Cl)cccc3n2)c1 [I-377] | 10 to 100 |
| CNC(=O)c1cnc(Nc2ccccc2C)c(NC(=O)c2ccc(F)c(F)c2OC)c1 [I-378] | 10 to 100 |
| CNC(=O)c1cnc(Nc2ccccc2C)c(NC(=O)c2cccc(C#N)n2)c1 [I-379] | 10 to 100 |
| CNC(=O)c1cnc(Nc2ccccc2C)c(NC(=O)c2cn3c(C(F)(F)F)cccc3n2)c1 [I-380] | 10 to 100 |
| CNC(=O)c1cnc(Nc2ccccc2C)c(NC(=O)CC2COc3ccccc3O2)c1 (centres unmarked) [I-381] | 10 to 100 |
| CNC(=O)c1cnc(Nc2ccccc2C)c(NC(=O)c2ccc(Cl)c(C#N)c2)c1 [I-382] | 10 to 100 |
| CNC(=O)c1cnc(Nc2ccccc2C)c(NC(=O)c2n[nH]c3c(F)cccc23)c1 [I-383] | 10 to 100 |
| CNC(=O)c1cnc(Nc2ccccc2C)c(NC(=O)CCc2cnccc2C(F)(F)F)c1 [I-384] | 10 to 100 |
| CNC(=O)c1cnc(Nc2ccccc2C)c(NC(=O)c2cnn(C)c2C(F)(F)F)c1 [I-385] | 10 to 100 |
| CNC(=O)c1cnc(Nc2ccccc2C)c(NC(=O)C2CCNc3ccccc32)c1 (centres unmarked) [I-386] | 10 to 100 |
| CNC(=O)c1cnc(Nc2ccccc2C)c(NC(=O)CC2OCCc3ccccc32)c1 (centres unmarked) [I-387] | 10 to 100 |
| CNC(=O)c1cnc(Nc2ccccc2C)c(NC(=O)c2cncc(C(F)(F)F)c2)c1 [I-388] | 10 to 100 |
| CNC(=O)c1cnc(Nc2ccccc2C)c(NC(=O)c2cc(F)cc(S(N)(=O)=O)c2)c1 [I-389] | 10 to 100 |
| CNC(=O)c1cnc(Nc2ccccc2C)c(NC(=O)c2ccc(OC(F)(F)F)c(F)c2)c1 [I-391] | 10 to 100 |
| CNC(=O)c1cnc(Nc2ccccc2C)c(NC(=O)c2cc(F)cc3[nH]ccc23)c1 [I-392] | 10 to 100 |
| CNC(=O)c1cnc(Nc2ccccc2C)c(NC(=O)c2cc(F)c3[nH]ncc3c2)c1 [I-393] | 10 to 100 |
| CNC(=O)c1cnc(Nc2ccccc2C)c(NC(=O)c2cc(F)c3cc[nH]c3c2)c1 [I-394] | 10 to 100 |

Same assay, conditions: ADP-Glo biochemical PIK3CA kinase assay

| SMILES | IC50 [µM] |
| --- | --- |
| CNC(=O)c1cnc(Nc2cccnc2OC)c(NC(=O)c2csc3ccccc23)c1 [I-400] | 10 to 100 |
| CNC(=O)c1cnc(Nc2cccc(OC)c2)c(NC(=O)c2csc3ccccc23)c1 [I-401] | 1 to 10 |
| CNC(=O)c1cnc(Nc2ccccc2C)c(NC(=O)c2csc3c2CCC(C)(C)C3)c1 [I-403] | 10 to 100 |
| CNC(=O)c1cnc(Nc2ccccc2C)c(NC(=O)c2csc3cc(F)cc(F)c23)c1 [I-404] | 10 to 100 |
| CNC(=O)c1cnc(Nc2ccccc2C)c(NC(=O)Cc2csc3ccccc23)c1 [I-410] | 10 to 100 |
| CNC(=O)c1cnc(Nc2ccccc2C)c(NC(=O)c2cnc3c(Cl)cccn23)c1 [I-414] | 10 to 100 |
| CNC(=O)c1cnc(Nc2ccccc2C)c(NC(=O)c2nc3ccccn3c2F)c1 [I-415] | 10 to 100 |
| CNC(=O)c1cnc(Nc2ccccc2C)c(NC(=O)c2cnc(O)cc2C(F)(F)F)c1 [I-416] | 10 to 100 |
| CNC(=O)c1cnc(Nc2ccccc2C)c(NC(=O)c2cn(C)nc2C(F)F)c1 [I-417] | 10 to 100 |
| CNC(=O)c1cnc(Nc2ccccc2C)c(NC(=O)c2cc(C)c3ccccc3n2)c1 [I-418] | 10 to 100 |
| CNC(=O)c1cnc(Nc2ccccc2C)c(NC(=O)c2cc(C)cc3cccnc23)c1 [I-419] | 1 to 10 |
| CNC(=O)c1cnc(Nc2ccccc2C)c(NC(=O)c2cnn3cc(F)ccc23)c1 [I-420] | 10 to 100 |
| CNC(=O)c1cnc(Nc2ccccc2C)c(NC(=O)c2cccc3cc(C)[nH]c23)c1 [I-421] | 1 to 10 |
| CNC(=O)c1cnc(Nc2ccccc2C)c(NC(=O)c2cn3c(F)cccc3n2)c1 [I-422] | 10 to 100 |
| CNC(=O)c1cnc(Nc2ccccc2C)c(NC(=O)c2cc(C)cc3cc[nH]c23)c1 [I-423] | 1 to 10 |
| CNC(=O)c1cnc(Nc2ccccc2C)c(NC(=O)c2cc3cc(F)ccc3[nH]2)c1 [I-425] | 10 to 100 |
| CNC(=O)c1cnc(Nc2ccccc2C)c(NC(=O)c2n[nH]c3cccc(F)c23)c1 [I-426] | 1 to 10 |
| CNC(=O)c1cnc(Nc2ccccc2C)c(NC(=O)c2nc3ccccn3c2C)c1 [I-427] | 10 to 100 |
| CNC(=O)c1cnc(Nc2ccccc2C)c(NC(=O)C(C)n2ccccc2=O)c1 (centres unmarked) [I-428] | 10 to 100 |
| CNC(=O)c1cnc(Nc2ccccc2C)c(NC(=O)c2cc3cc[nH]c3cc2F)c1 [I-429] | 10 to 100 |
| CNC(=O)c1cnc(Nc2ccccc2C)c(NC(=O)c2cnn3cccc(OC)c23)c1 [I-430] | 10 to 100 |

| SMILES | IC50 [µM] |
| --- | --- |
| CNC(=O)c1cnc(Nc2ccccc2C)c(NC(=O)c2ccc3c(cnn3C)c2)c1 [I-431] | 10 to 100 |
| CNC(=O)c1cnc(Nc2ccccc2C)c(NC(=O)c2cc(C(F)(F)F)ccn2)c1 [I-432] | 10 to 100 |
| Cc1ccccc1CNc1cccc(=O)n1Cc1ccccc1C [I-433] | 10 to 100 |
| CNC(=O)c1cnc(Nc2ccccc2C)c(NC(=O)CCc2ccccc2F)c1 [I-437] | 10 to 100 |
| CNC(=O)c1cnc(Nc2ccccc2C)c(NC(=O)c2ccnc3c(F)cccc23)c1 [I-438] | 10 to 100 |
| CNC(=O)c1cnc(Nc2ccccc2C)c(NC(=O)c2nn(C)c(C3CC3)c2F)c1 [I-439] | 10 to 100 |
| CNC(=O)c1cnc(Nc2ccccc2C)c(NC(=O)c2cc3c(C)cccc3[nH]2)c1 [I-440] | 10 to 100 |
| CNC(=O)c1cnc(Nc2ccccc2C)c(NC(=O)C2CCCCC2(F)F)c1 (centres unmarked) [I-441] | 10 to 100 |
| CNC(=O)c1cnc(Nc2ccccc2C)c(NC(=O)c2cc3cccc(F)c3s2)c1 [I-442] | 10 to 100 |
| CNC(=O)c1cnc(Nc2ccccc2C)c(NC(=O)c2cccnc2CS(C)(=O)=O)c1 [I-443] | 10 to 100 |
| CNC(=O)c1cnc(Nc2ccccc2C)c(NC(=O)c2ccnc3ccc(Br)cc23)c1 [I-444] | 10 to 100 |
| CNC(=O)c1cnc(Nc2ccccc2C)c(NC(=O)c2cccc(Cl)c2C)c1 [I-445] | 10 to 100 |
| CC#CCC(C(=O)Nc1cc(C(=O)NC)cnc1Nc1ccccc1C)c1ccccc1 (centres unmarked) [I-446] | 10 to 100 |
| CNC(=O)c1cnc(Nc2ccccc2C)c(NC(=O)c2ccc3c(c2)COC3)c1 [I-447] | 10 to 100 |
| CNC(=O)c1cnc(Nc2ccccc2C)c(NC(=O)c2cc(=O)[nH]c3ccccc23)c1 [I-448] | 10 to 100 |
| CNC(=O)c1cnc(Nc2ccccc2C)c(NC(=O)c2cc(Cl)n3ccccc23)c1 [I-449] | 0.1 to 0.5 |
| CNC(=O)c1cnc(Nc2ccccc2C)c(NC(=O)c2cc(C)nn2C(F)F)c1 [I-450] | 10 to 100 |
| CNC(=O)c1cnc(Nc2ccccc2C)c(NC(=O)c2cnc3cc(F)ccn23)c1 [I-451] | 10 to 100 |
| CNC(=O)c1cnc(Nc2ccccc2C)c(NC(=O)c2cc3c(Cl)cncc3s2)c1 [I-452] | 10 to 100 |
| CNC(=O)c1cnc(Nc2ccccc2C)c(NC(=O)c2ccc3ccccc3c2Br)c1 [I-453] | 10 to 100 |
| CNC(=O)c1cnc(Nc2ccccc2C)c(NC(=O)c2cccc(OC)c2F)c1 [I-454] | 10 to 100 |
